± gives the standard deviation of the averaged measurements.
What was measured:
Assay in all cases: level (log10 ratio to DMSO vehicle control); higher = higher biomarker level / cell amount than vehicle control
Conditions in all cases: in DMSO
[1] = compound: C=C(C)C(=O)OCC(F)(F)C(F)(F)C(F)(F)C(F)(F)C(F)(F)C(F)(F)C(F)(F)F
Protocol: (§1)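 BioMAP Diversity Plus panel of 12 human primary cell co-culture systems (3C, 4H, LPS, SAg, BT, BF4T, BE3C, CASM3C, HDF3CGF, KF3CT, MyoF, Mphg). Compounds were added 1 h before stimulation and left for 24 h (MyoF 48 h; BT 72 h for soluble read-outs or 6 d for IgG). Biomarkers were read by ELISA, cytotoxicity by SRB, PBMC viability and proliferation by Alamar Blue. Each well value was divided by the mean of 8 DMSO control wells on the same plate and log10 transformed; duplicate blinded samples were tested at 4 concentrations.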

1-(Perfluorohexyl)octane = compound: CCCCCCCCC(F)(F)C(F)(F)C(F)(F)C(F)(F)C(F)(F)C(F)(F)F [1-(Perfluorohexyl)octane]
Protocol: as §1

[2] = compound: O=C(O)C(F)(F)C(F)(F)C(F)(F)C(F)(F)C(F)(F)C(F)(F)C(F)(F)C(F)(F)Cl [9-Chloro-perfluorononanoic acid]
Protocol: as §1

[3] = compound: O=C(O)CCC(F)(F)C(F)(F)C(F)(F)C(F)(F)C(F)(F)F [2H,2H,3H,3H-Perfluorooctanoic acid]
Protocol: as §1

Row | Test System | level (log10) ([1]; 6700 nM) | level (log10) ([1]; 20000 nM) | level (log10) (1-(Perfluorohexyl)octane; 6700 nM) | level (log10) (1-(Perfluorohexyl)octane; 20000 nM) | level (log10) ([2]; 6700 nM) | level (log10) ([2]; 20000 nM) | level (log10) ([3]; 6700 nM) | level (log10) ([3]; 20000 nM) | level (log10) ([3]; 60000 nM)
1 | BE3C:CD54/ICAM-1 | 0.007 ± 0.0014 | 0.006 ± 0.0085 | 0.0045 ± 0.011 | -0.0025 ± 0.0021 | 0.0145 ± 0.018 | -0.033 ± 0.014 | -0.0065 ± 0.0078 | -0.0085 ± 0.005 | -0.0155 ± 0.011
2 | LPS:M-CSF | 0.005 ± 0.017 | 0.03 ± 0.017 | -0.0065 ± 0.021 | 0.0235 ± 0.037 | -0.0125 ± 0.0078 | 0.0485 ± 0.047 | -0.0035 ± 0.0035 | 0.008 ± 0.014 | 0.0035 ± 0.03
3 | 3C:CXCL8/IL-8 | -0.0085 ± 0.032 | 0.03 ± 0.014 | -0.005 ± 0.0028 | 0.0005 ± 0.019 | 0.005 ± 0.037 | 0.0235 ± 0.063 | -0.032 ± 0.075 | 0.005 ± 0.0042 | 0.0265 ± 0.0092
4 | 3C:SRB | 0.0095 ± 0.015 | -0.0105 ± 0.022 | 0.004 ± 0.021 | -0.005 ± 0.018 | -0.0005 ± 0.005 | -0.0165 ± 0.0035 | -0.002 | -0.0085 ± 0.0078 | -0.009 ± 0.0085
